Data reported in US20230310459A1, “NEUROACTIVE STEROIDS AND THEIR METHODS OF USE” (Sage Therapeutics, Inc., priority 2017, published 2023).
Marks after values point to notes of the source that are not given here.

Tested on: Subjects with Major Depressive Disorder
Test: Phase 2 open-label study (Part A): safety and tolerability (TEAEs, C-SSRS)
Type: in vivo, human
Conditions: N=13
Method: In this multicenter, open-label, Phase 2 clinical trial, subjects were administered 30 mg Compound 1 on Days 1-14 and assessed through Day 28. Reductions in depressive and anxiety symptoms were assessed by the Hamilton Rating Scales for Depression and Anxiety (HAM-D and HAM-A), and the Montgomery-Asberg Depression Rating Scale (MADRS). Safety and tolerability were assessed via standard safety parameters. Pharmacokinetic parameters were also evaluated.
Compound 1 was provided as a 6 mg/mL stock aqueous solution, which was further diluted with sterile water to achieve the selected dose that was administered as an oral solution. Participants received an open label 30 mg Compound 1 oral dose administered at 8:00 PM (+/−15 minutes) with food on Days 1 through 14. Subjects who experienced drug-related moderate or severe adverse events (as judged by the study investigators) while receiving the 30 mg dose of study drug were to have their dose reduced to 20 mg for the remaining treatment period. Any subjects not tolerating a 20 mg dose were to be terminated from the study. Vital signs were collected daily. Other study procedures and plasma collection for PK parameters were conducted at various times during the 14-day open label treatment period (procedure details in the Supplemental Appendix). Treatment follow-up was conducted on an outpatient basis and included a follow-up visit at 1 week (21+/−1 day) and at 2 weeks (28+/−1 day) after the last dose of the study drug.
The primary endpoint of safety and tolerability of Compound 1 was assessed by the frequency and severity of adverse events, vital signs, changes in clinical laboratory measures, physical exams, electrocardiograms (ECGs), the Stanford Sleepiness Scale (SSS) score, and suicide ideation using the Columbia-Suicide Severity Rating Scale (C-SSRS, Supplemental Table 1). Secondary efficacy endpoints included: change from baseline in HAM-D total score, HAM-D response, defined as having a 50% or greater reduction from baseline in HAM-D total score, HAM-D remission, defined as having a HAM-D total score of ≤7, HAM-A change from baseline, and MADRS score change from baseline. The PK profile of Compound 1 was also determined from plasma samples.
Subjects were monitored for safety during the Treatment and Follow-up Periods including monitoring for adverse events/serious adverse events, routine clinical laboratory assessments, physical examination, vital signs, and ECG. During the Treatment Period, subjects received study drug as long as there are no dose-limiting safety/tolerability concerns

Compound: C[C@@]1(O)CC[C@H]2[C@H](CC[C@@H]3[C@@H]2CC[C@]2(C)[C@@H](C(=O)Cn4cc(C#N)cn4)CC[C@@H]32)C1 [Compound 1, 1-(2-((3R,5R,8R,9R,10S,13S,14S,17S)-3-hydroxy-3,13-dimethylhexadecahydro-1H-cyclopenta[a]phenanthren-17-yl)-2-oxoethyl)-1H-pyrazole-4-carbonitrile]
- At least one TEAE, number of subjects (30 mg once daily Days 1-14): 12 subjects
- tolerability (30 mg once daily Days 1-14): generally well tolerated
- C-SSRS Subject engaged in non-suicidal self-injurious behavior, number of subjects who answered yes (Day 2-15 (yes on Days 10-13)): 1*
- C-SSRS Aborted attempt, number of subjects who answered yes (Day 2-15): 0
- C-SSRS Actual attempt, number of subjects who answered yes (Day 2-15): 0
- C-SSRS Interrupted attempt, number of subjects who answered yes (Day 2-15): 0
- C-SSRS Preparatory acts or behavior, number of subjects who answered yes (Day 2-15): 0
- C-SSRS Suicidal behavior, number of subjects who answered yes (Day 2-15): 0
- Dizziness, number of subjects: 3 subjects
- Dizziness, percent of subjects: (23.1%)
- Drug-related TEAE, number of subjects: 11 subjects
- Drug-related TEAE, percent of subjects: (84.6%)
- Headache, number of subjects: 4 subjects
- Headache, percent of subjects: (30.8%)
- Myalgia, number of subjects: 3 subjects
- Myalgia, percent of subjects: (23.1%)
- Nasal Congestion, number of subjects: 2 subjects
- Nasal Congestion, percent of subjects: (15.4%)
- Sedation, number of subjects: 6 subjects
- Sedation, percent of subjects: (46.2%)
- Serious AE, number of subjects: 0 subjects
- Severe TEAE, number of subjects: 0 subjects
- Somnolence, number of subjects: 3 subjects
- Somnolence, percent of subjects: (23.1%)
- TEAE leading to death, number of subjects: 0 subjects
- TEAE leading to drug discontinuation, number of subjects: 0 subjects
- changes in clinical hematology, urinalysis, vital signs, or ECGs: no clinically relevant changes
- serious adverse events (SAEs) or discontinuations due to AEs: no serious adverse events (SAEs) or discontinuations due to AEs
